Consider 54 molecules from patent publication US8653087B2, “Pyrido [5, 4-D] pyrimidines as cell proliferation inhibitors” (Boehringer Ingelheim International GmbH, priority 2008, dated 2014).

This assay deals with B-Raf (V600E)-kinase (Homo sapiens (Human), UniProt P15056, V600E). Kind of assay: Kinase test B-RAF (V600E). The class given is biochemical. As to conditions: B-RAF (V600E) kinase test, 250 μM ATP. As to the method:
Kinase Test B-RAF (V600E)
In a dilution series 10 μL of test substance solution are placed in a multiwell plate. The dilution series is selected so that generally a range of concentrations of 2 μM to 0.119 nM or 0.017 nM is covered. If necessary the initial concentration of 2 μM is changed to 50 μM, 10 μM or 0.4 μM or 0.2857 μM and further dilution is carried out accordingly. The final concentration of DMSO is 5%. 10 μL of the B-Raf (V600E)-kinase solution are pipetted in (containing 0.5 ng B-Raf (V600E)-kinase in 20 mM Tris-HCl pH 7.5, 0.1 mM EDTA, 0.1 mM EGTA, 0.286 mM sodium orthovanadate, 10% glycerol, 1 mg/mL bovine serum albumin, 1 mM dithiothreitol) and the mixture is incubated for 24 h at RT under with shaking. The kinase reaction is started by the addition of 20 μL ATP solution [final concentration: 250 μM ATP, 30 mM Tris-HCl pH 7.5, 0.02% Brij, 0.2 mM sodium orthovanadate, 10 mM magnesium acetate, 0.1 mM EGTA, phosphatase cocktail (Sigma, # P2850, dilution recommended by the manufacturer), 0.1 mM EGTA] and 10 μL MEK1 solution [containing 50 ng biotinylated MEK1 (prepared from purified MEK1 according to standard procedure, e.g. with EZ-Link Sulpho-NHS-LC-Biotin reagent, Pierce, #21335) and carried out for 60 min at RT with constant shaking. The reaction is stopped by the addition of 12 μL of a 100 mM EDTA solution and incubation is continued for a further 5 min. 55 μL of the reaction solution are transferred into a streptavidin-coated plate (e.g. Streptawell HighBond, Roche, #11989685001) and shaken gently for 1 h at RT, in order to bind biotinylated MEK1 to the plate. After elimination of the liquid the plate is washed five times with 200 μL of 1×PBS and 100 μL solution of primary antibody plus europium-labelled secondary antibody [Anti Phospho-MEK (Ser217/221), Cell Signaling, #9121 and Eu-N1 labeled goat-anti-rabbit antibody, Perkin Elmer, # AD0105], the primary antibody is diluted 1:2000 and the secondary antibody is diluted to 0.4-0.5 μg/mL in Delfia Assay Buffer (Perkin Elmer, #1244-111). After 1 h shaking at RT the solution is poured away and washed five times with 200 μL Delfia Wash Buffer (Perkin Elmer, #4010-0010/#1244-114). After the addition of 200 μL Enhancement Solution (Perkin Elmer, #4001-0010/#1244-105) the mixture is shaken for 10 min at RT and then measured in a Wallac Victor using the program “Delfia Time Resolved Fluorescence (Europium)”. IC50 values are obtained from these dosage-activity curves using a software program (GraphPadPrizm).

Some results are limits rather than exact numbers.

Chain of B-Raf (V600E)-kinase (P15056 whole entry V600E): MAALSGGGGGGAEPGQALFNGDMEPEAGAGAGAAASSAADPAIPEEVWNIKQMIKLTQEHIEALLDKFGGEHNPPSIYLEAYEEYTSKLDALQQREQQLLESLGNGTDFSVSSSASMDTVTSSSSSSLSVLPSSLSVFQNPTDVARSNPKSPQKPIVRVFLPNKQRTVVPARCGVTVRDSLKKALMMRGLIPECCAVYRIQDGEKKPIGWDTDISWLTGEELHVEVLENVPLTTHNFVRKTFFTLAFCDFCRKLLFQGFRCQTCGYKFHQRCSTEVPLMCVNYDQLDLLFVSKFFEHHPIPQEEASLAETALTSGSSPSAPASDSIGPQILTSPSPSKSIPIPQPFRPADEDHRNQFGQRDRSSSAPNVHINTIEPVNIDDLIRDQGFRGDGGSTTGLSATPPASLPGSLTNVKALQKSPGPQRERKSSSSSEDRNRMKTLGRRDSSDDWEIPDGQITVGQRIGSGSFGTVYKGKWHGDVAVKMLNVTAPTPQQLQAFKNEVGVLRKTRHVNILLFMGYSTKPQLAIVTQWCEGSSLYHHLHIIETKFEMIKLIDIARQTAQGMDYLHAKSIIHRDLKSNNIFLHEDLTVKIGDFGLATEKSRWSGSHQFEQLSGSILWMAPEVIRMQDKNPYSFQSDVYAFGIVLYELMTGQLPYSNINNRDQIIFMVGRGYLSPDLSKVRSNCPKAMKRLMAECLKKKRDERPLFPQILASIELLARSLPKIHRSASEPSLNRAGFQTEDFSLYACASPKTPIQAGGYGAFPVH

A word on the IC50: it is the point on the concentration scale where inhibition reaches its midpoint. Low values mean greater potency in that assay, high ones weaker potency in that assay. `Cc1ccc(C(=O)Nc2cccc(C(C)(C)C)c2)cc1Nc1ncnc2cnc(N3CCCCC3)nc12` [III-248] displayed an IC50 of 2 nM.
Regarding `Cc1ccc(C(=O)Nc2cccc(C(C)(C)C)c2)cc1Nc1ncnc2cnc(NC3CCOC3)nc12` (stereo not drawn) [III-350], the half-maximal inhibitory concentration (IC50) was less than 1 nM.
Next, `Cc1ccc(C(=O)Nc2cc(C(C)(C)C)on2)cc1Nc1ncnc2cnc(N3CCN(C(C)C)CC3)nc12` [III-492]: 2 nM; `COc1ncc2ncnc(Nc3cc(C(=O)Nc4cc(C(C)(C)C)nn4C)ccc3C)c2n1` [III-565]: 11 nM; `Cc1ccc(C(=O)Nc2ccc(F)c(C(F)(F)F)c2)cc1Nc1ncnc2cnc(N3CCCN(C)CC3)nc12` [III-216]: 3 nM.
The molecule `COCCN(C)c1ncc2ncnc(Nc3cc(C(=O)Nc4cccc(C(C)(C)C)c4)ccc3C)c2n1` [III-468] gave an IC50 of less than 1 nM.
Next, `Cc1ccc(C(=O)Nc2cc(C(C)(C)C)nn2C)cc1Nc1ncnc2cnc(N(C)CC3CCCCO3)nc12` (stereo not drawn) [III-476]: 17 nM; `COCCN(C)c1ncc2ncnc(Nc3cc(C(=O)Nc4cc(C(C)(C)C)n[nH]4)ccc3C)c2n1` [III-471]: 4 nM; `CCN1CCN(c2cc(NC(=O)c3ccc(C)c(Nc4ncnc5c(N)nc(N6CCOCC6)nc45)c3)cc(C(F)(F)F)c2)CC1` [I-77]: 2 nM.
The molecule `Cc1ccc(C(=O)NC2CC2)cc1Nc1ncnc2cnc(N3CCN(C)CC3)nc12` [III-191] showed an IC50 greater than 15000 nM.
Turning to `Cc1ccc(C(=O)Nc2cccc(C(C)(C)C)c2)cc1Nc1ncnc2cnc(N3CC[C@@H](F)C3)nc12` [III-244], the IC50 was less than 1 nM.
Take `Cc1ccc(C(=O)NCc2ccc(C(F)(F)F)cc2)cc1Nc1ncnc2cnc(N3CC[C@@H](F)C3)nc12` [III-242]: half-maximal inhibition (IC50) was put at 19 nM.
Next, `Cc1ccc(NC(=O)c2cccc(C(C)(C)C#N)c2)cc1Nc1ncnc2cnc(NC3CCOC3)nc12` (stereo not drawn) [IV-32]: 1 nM; `Cc1ccc(C(=O)Nc2cc(N3CCN(C)CC3)c(F)c(C(F)(F)F)c2)cc1Nc1ncnc2cnc(N3CC[C@H](F)C3)nc12` [III-511]: 4 nM.
For `Cc1ccc(C(=O)Nc2cc(C(C)(C)C)n[nH]2)cc1Nc1ncnc2c(N)nc(N3CCN(C4CCN(C)CC4)CC3)nc12` [I-12], the IC50 was determined as 2 nM.
As to `COc1ccc(C(=O)Nc2ccc(OC)c(C(F)(F)F)c2)cc1Nc1ncnc2cnc(N(C)CCN3CCCC3)nc12` [III-21], the IC50 stood at 3 nM. This IC50 is about 1.5-fold higher than that of the molecule before.
The molecule `CN1CCN(c2nc(N)c3ncnc(Nc4cccc(C(=O)Nc5cccc(C(F)(F)F)c5)c4)c3n2)CC1` [I-19] registered an IC50 of 57 nM.
`COc1ccc(NC(=O)c2ccc(C)c(Nc3ncnc4cnc(N5CCN(C(C)C)CC5)nc34)c2)cc1C(F)(F)F` [III-437] registered an IC50 of 2 nM.
The molecule `Cc1ccc(C(=O)Nc2cc(C(C)(C)C)on2)cc1Nc1ncnc2cnc(N3CCN(CCN4CCOCC4)CC3)nc12` [III-370] had an IC50 of 1 nM.
Molecule `COc1ccc(NC(=O)c2ccc(C(F)(F)F)c(Nc3ncnc4cnc(N(C)CCN5CCCC5)nc34)c2)cc1C(F)(F)F` [III-46] showed an IC50 of 451 nM.
Next, `COc1ccc(NC(=O)c2ccc(F)c(Nc3ncnc4cnc(N5CCCCCC5)nc34)c2)cc1C(F)(F)F` [III-32]: 1 nM.
The molecule `CCN1CCN(c2cc(NC(=O)c3ccc(C)c(Nc4ncnc5cnc(NC6CCOC6)nc45)c3)cc(C(F)(F)F)c2)CC1` (stereo not drawn) [III-351] returned an IC50 of less than 1 nM.
As to `Cc1ccc(NC(=O)c2cc(N3CCN(C)CC3)cc(C(C)(C)C#N)c2)cc1Nc1ncnc2cnc(N3CCOCC3)nc12` [IV-68], the IC50 stood at 3 nM.
`Cc1ccc(C(=O)Nc2cc(C(C)(C)C)on2)cc1Nc1ncnc2cnc(N3CCCOCC3)nc12` [III-369] registered an IC50 of 2 nM.
Next, `Cn1nc(C(C)(C)C)cc1NC(=O)c1cc(Cl)cc(Nc2ncnc3cnc(N4CCOCC4)nc23)c1` [III-376]: 7 nM.
`Cc1ccc(C(=O)Nc2cccc(C(C)(C)C)c2)cc1Nc1ncnc2cnc(N3CCCN(C)CC3)nc12` [III-224] registered an IC50 of less than 1 nM.
The molecule `Cc1ccc(C(=O)Nc2cc(CN3CCCC3)cc(C(F)(F)F)c2)cc1Nc1ncnc2cnc(NCc3ccncc3)nc12` [III-114] displayed an IC50 of 2 nM.
`Cc1ccc(NS(=O)(=O)CC(F)(F)F)cc1Nc1ncnc2cnc(N3CCN(C)CC3)nc12` [IV-53] showed an IC50 of 10000 nM.
As for `Cc1ccc(C(=O)Nc2cccc(C(C)(C)C#N)c2)cc1Nc1ncnc2cnc(N3CCCN(C)CC3)nc12` [III-180], inhibition was half-maximal at 3 nM (IC50). This IC50 is about 3300-fold lower than that of the molecule before.
On to `COc1ccc(NC(=O)c2ccc(C)c(Nc3ncnc4cnc(NC5CCOC5)nc34)c2)cc1C(F)(F)F` (stereo not drawn) [III-356], for which the IC50 is less than 1 nM.
With `Cc1ccc(C(=O)Nc2cccc(C(F)(F)F)c2)cc1Nc1ncnc2c(N)nc(N3CCN(CC4CCN(C)CC4)CC3)nc12` [I-61], the IC50 was less than 1 nM.
`Cc1ccc(C(=O)n2nc(C(C)(C)C)cc2N)cc1Nc1ncnc2cnc(NC3CCOC3)nc12` (stereo not drawn) [III-354] gave an IC50 of 20 nM.
Molecule `CC(C)(C)c1cc(NC(=O)c2ccc(C(F)(F)F)c(Nc3ncnc4cnc(NCCN5CCOCC5)nc34)c2)no1` [III-66] yielded an IC50 of 1140 nM. This IC50 lies about 57-fold higher than the previous one.
Regarding `Cc1ccc(C(=O)Nc2cc(C(C)(C)C)on2)cc1Nc1ncnc2cnc(NC3CCOC3)nc12` (stereo not drawn) [III-357], the IC50 is less than 1 nM.
Regarding `COCCN(C)c1ncc2ncnc(Nc3cc(C(=O)Nc4cc(C(C)(C)C)on4)ccc3F)c2n1` [III-84], the IC50 was determined as 2 nM. In other words, the single-digit nanomolar range.
As for `Cc1ccc(C(=O)Nc2cc(C(C)(C)C)nn2C)cc1Nc1ncnc2cnc(NCC(C)C)nc12` [III-499], half-maximal inhibition (IC50) was put at 3 nM. This IC50 lies about 1.5-fold higher than the previous one.
For the molecule `Cc1ccc(C(=O)Nc2ccccc2)cc1Nc1ncnc2cnc(N(C)CCN(C)C)nc12` [III-202], the IC50 was greater than 2000 nM.
In turn, `Cc1ccc(C(=O)NCc2cccc(C(C)(C)C)c2)cc1Nc1ncnc2cnc(N3CCCCC3)nc12` [III-308] returned an IC50 of 47 nM. This lies in the double-digit nanomolar range.
As to `Cc1ccc(C(=O)Nc2cc(C(C)(C)C)n[nH]2)cc1Nc1ncnc2cnc(NCc3ccccc3)nc12` [III-512], the IC50 is 2 nM. Compared with the last molecule, the IC50 is about 24-fold lower.
`COc1ncc2ncnc(Nc3cc(NC(=O)c4ccc(Cl)c(C(F)(F)F)c4)ccc3C)c2n1` [IV-50] showed an IC50 of 59 nM.
Molecule `Cc1ccc(C(=O)Nc2cccc(C(C)(C)C)c2)cc1Nc1ncnc2cnc(NCc3ccccc3)nc12` [III-428] came in with a half-inhibitory concentration (IC50) of less than 1 nM.
As for `COc1ccc(NC(=O)c2ccc(C)c(Nc3ncnc4cnc(N5CCN(CC6CCN(C)CC6)CC5)nc34)c2)cc1C(F)(F)F` [III-419], the IC50 turned out to be 1 nM.
Regarding `COc1ccc(C(C)(C)C)cc1NC(=O)c1ccc(C)c(Nc2ncnc3cnc(N4CCOCC4)nc23)c1` [III-306], inhibition was half-maximal at 4 nM (IC50).
Turning to `COc1ccc(NC(=O)c2ccc(C(F)(F)F)c(Nc3ncnc4cnc(NCCN5CCOCC5)nc34)c2)cc1C(F)(F)F` [III-53], the IC50 stood at 318 nM.
With `Cc1ccc(C(=O)Nc2cccc(S(=O)(=O)N(C)C)c2)cc1Nc1ncnc2cnc(N(C)CCN(C)C)nc12` [III-195], half-maximal inhibition (IC50) required 59 nM.
Turning to `CC(C)(C)c1cc(NC(=O)c2ccc(C(F)(F)F)c(Nc3ncnc4cnc(NCCCN5CCOCC5)nc34)c2)no1` [III-62], the IC50 turned out to be 546 nM. Compared with the last molecule, the IC50 is about 9.3-fold higher.
Next, `Cc1ccc(C(=O)Nc2ccc3c(c2)C(C)(C)C(=O)N3CCN2CCCC2)cc1Nc1ncnc2cnc(N3CCCN(C)CC3)nc12` [III-252]: 8 nM; `Cc1ccc(C(=O)NC2CC2)cc1Nc1ncnc2cnc(N3CC[C@@H](F)C3)nc12` [III-210]: greater than 2000 nM; `COc1ccc(NC(=O)c2ccc(C)c(Nc3ncnc4c(N)nc(N5CCCN(C)CC5)nc34)c2)cc1C(F)(F)F` [I-17]: 1 nM.
In turn, `CN1CCCN(c2ncc3ncnc(Nc4cc(C(=O)Nc5cc(C(C)(C)C)on5)ccc4C(F)(F)F)c3n2)CC1` [III-58] showed an IC50 of 88 nM.
Molecule `Cc1ccc(C(=O)Nc2cc(N3CCN[C@H](C)C3)cc(C(F)(F)F)c2)cc1Nc1ncnc2cnc(N3CCOCC3)nc12` [III-527] registered an IC50 of less than 1 nM.
Regarding `Cc1ccc(C(=O)Nc2cc(C(F)(F)F)ccn2)cc1Nc1ncnc2c(N)nc(N3CCN(C)CC3)nc12` [I-73], the IC50 was 2 nM.
`CCN1CCN(c2ncc3ncnc(Nc4cc(C(=O)Nc5ccc(OC)c(C(F)(F)F)c5)ccc4F)c3n2)CC1` [III-405] returned an IC50 of 5 nM.
As for `Cc1ccc(C(=O)Nc2cc(C(C)(C)C)on2)cc1Nc1ncnc2cnc(N3CCN(CCCN4CCCC4)CC3)nc12` [III-481], the midpoint of inhibition, the IC50, lay at 1 nM.
